Data on three compounds can be found in patent EP0752465A1, “Betaine esters for delivery of alcohols” (THE PROCTER & GAMBLE COMPANY, priority 1995, dated 1997).

Molecules are shown by their SMILES. Read-outs that look alike come from different tables or passages of the source. Bounds are passed on as bounds.

This data set in a line: Hydrolysis rate of betaine ester, pH-stat titrator at constant pH and temperature. Format: physicochemical. The conditions noted are these: for profile of hydrolysis: dependence on pH. On the procedure:
Test realised under pH-stat configuartion, at controlled temperature (40°C). Concentration in betaine ester used 1.5.10^-2 mol/l
[formula] Test conditions: C12 BEG added to a solution (pH 10.5) of sodium stearate in distilled water. pH and temperature maintained constant all along the test. Percentage of C12 BEG hydrolysed assessed using an automatic pH stat titrator. Concentrations used: C12 BEG 1.25 10^-2 mol/l Sodium stearate: 1 equivalent 1.25 10^-2 mol/l 2 equivalents 2.5 10^-2 mol/l
[formula] • Hydrolysis rate determined with a Radiometer pH stat. • Temperature (40°C) and pH (10.5) maintained constant. Concentration in C12 BEG or new ion pair C12 BEG/DS: 10^-3 mol/l. • Mixture anionic/nonionic: sodium dodecylsulfate (0.43 g/l), sodium stearate (0.013 g/l), alkylethoxylate (Dobanol 45 7 from Shell, 0.38 g/l), N-cocoyl-N-methylglucamine (0.16 g/l). • Kinetics of hydrolysis of C12 BEG/DS, with or without surfactants all follow a first order in [C12BEG/DS].

The mark [1] stands for this setting: 40°C, pH 10.5, with 1 equivalent of sodium dodecylsulfate.
Where [2] appears, read: 40°C, pH 10.5, with 3 equivalents of sodium dodecylsulfate.
[3] abbreviates: 40°C, pH 10.5, with 5 equivalents of sodium dodecylsulfate.
Setting [4] is: 40°C, pH 10.5, with 10 equivalents of sodium dodecylsulfate.
Where [5] appears, read: 40°C, pH 8.5, 1.25 10^-2 mol/l, alone.
Setting [6] is: 40°C, pH 8.5, with 1 equivalent sodium stearate.
The mark [7] stands for this setting: 40°C, pH 8.5, with 2 equivalent sodium stearate.
Where [8] appears, read: 40°C, pH 10.5, 1.25 10^-2 mol/l, with 2 equivalents of sodium dodecylsulfate.
[9] abbreviates: 40°C, pH 10.5, 1.25 10^-2 mol/l, with 4 equivalents of sodium dodecylsulfate.
Where [10] appears, read: 40°C, pH 10.5, 1.25 10^-2 mol/l, with 9 equivalents of sodium dodecylsulfate.
Setting [11] is: 40°C, pH 10.5, 10^-3 mol/l, with mixture anionic/nonionic.
[12] abbreviates: 40°C, pH 10.5, 10^-3 mol/l, with sodium dodecylsulfate only.
[13] abbreviates: 40°C, pH 10.5, ion pair 1.25 10^-2 mol/l alone.
[14] abbreviates: 40°C, pH 10.5, ion pair 10^-3 mol/l alone.

For the compound `CC(C)=CCC/C(C)=C/COC(=O)C[N+](C)(C)C.[Cl-]` [BEG, geranyloxycarbonyl-N,N,N-trimethylmethanaminium chloride], the profile of hydrolysis result is recorded as “very dependent on pH”. Moreover, under “40°C, pH 10.5, alone”, the k was found to be 3950 mol^- ^1.l.min^-1 and the “kobs at pH 10.5” value was found to be 1.25 min^-1. Further, under setting [1], the k came to 202 mol^- ^1.l.min^-1 and the “kobs at pH 10.5” value was found to be 0.064 min^-1. For the same compound, under setting [2], the k was found to be 35 mol^- ^1.l.min^-1 and the “kobs at pH 10.5” value is listed as 0.0111 min^-1. Under setting [3], the k is listed as 23.5 mol^- ^1.l.min^-1 and the “kobs at pH 10.5” value is on record as 0.0074 min^-1. Under setting [4], the k stood at 21 mol^- ^1.l.min^-1 and the “kobs at pH 10.5” value is given as 0.0067 min^-1. For the same compound, the half-life (buffer, pH 10.5, 40°C, pH 10.5, alone, read-out: t1/2 at pH 10.5) was roughly 0.5 min. For the same compound, the Hydrolysis profile entry (pH-stat, 40°C, betaine ester 1.5.10^-2 mol/l) is on record as “very pH dependent”. Also, under “solution with 1 equivalent sodium dodecylsulfate, pH 10.5, 40°C, pH 10.5, with 1 equivalent of sodium dodecylsulfate, read-out: t1/2 at pH 10.5”, the half-life was found to be 10.8 min. Besides, for the setting “solution with 3 equivalents sodium dodecylsulfate, pH 10.5, 40°C, pH 10.5, with 3 equivalents of sodium dodecylsulfate, read-out: t1/2 at pH 10.5”, the half-life was 63 min. Further, the half-life (solution with 5 equivalents sodium dodecylsulfate, pH 10.5, 40°C, pH 10.5, with 5 equivalents of sodium dodecylsulfate, read-out: t1/2 at pH 10.5) turned out to be 93 min. The half-life (solution with 10 equivalents sodium dodecylsulfate, pH 10.5, 40°C, pH 10.5, with 10 equivalents of sodium dodecylsulfate, read-out: t1/2 at pH 10.5) came to 104 min.
Take `CCCCCCCCCCCC[N+](C)(C)CC(=O)OC/C=C(\C)CCC=C(C)C.[Br-]` [C12 BEG, Geranyloxycarbonyl-N,N-dimethyl-N-dodecylmethanaminium bromide]: the profile of hydrolysis entry is recorded as “very dependent on pH”. For the same compound, the “kobs at pH 8.5” value (40°C, alone) is greater than 30 min^-1. Under setting [5], the k was >100 000 mol^- ^1.l.min^-1 and the “kobs at pH 8.5” value is greater than 0.3 min^-1. Also, under setting [6], the k is reported as 20 333 mol^- ^1.l.min^-1 and the “kobs at pH 8.5” value is on record as 0.0643 min^-1. Under setting [7], the k amounted to 904 mol^- ^1.l.min^-1 and the “kobs at pH 8.5” value stood at 0.00286 min^-1. Also, the k (40°C, pH 10.5, 1.25 10^-2 mol/l, alone) was >100 000 mol^- ^1.l.min^-1. The compound further registered a k (40°C, pH 10.5, 10^-3 mol/l, alone) greater than 15000 mol^- ^1.l.min^-1. The k (40°C, pH 10.5, alone) is on record as >100 000 mol^- ^1.l.min^-1. For the setting “40°C, pH 10.5, high betaine ester concentration 1.25 10^-2 mol/l, alone”, this compound gave a k obs greater than 30 min⁻¹. The compound further gave a k obs (40°C, pH 10.5, lower concentration 10^-3 mol/l, alone) greater than 5 min⁻¹. For the same compound, the k (40°C, pH 10.5, with 1 equivalent sodium dodecylsulfate) worked out at 5.3 mol^- ^1.l.min^-1. Where the note is “40°C, pH 10.5, with 1 equivalent sodium hexadecylsulfonate”, the k is reported as 1580 mol^- ^1.l.min^-1. In addition, the k (40°C, pH 10.5, with 2 equivalents sodium stearate) is 1265 mol^- ^1.l.min^-1. For the same compound, the “kobs at pH 8.5” value (40°C, with 1 equivalent sodium dodecylsulfate) stood at 0.0017 min^-1. Where the note is “40°C, with 1 equivalent sodium hexadecylsulfonate”, the “kobs at pH 8.5” value came out at 0.5 min^-1. The “kobs at pH 8.5” value (40°C, with 2 equivalents sodium stearate) is listed as 0.4 min^-1. Also, under “buffer, pH 8.5, 40°C, pH 8.5, 1.25 10^-2 mol/l, alone, read-out: t1/2 pH 8.5”, the half-life at 0.0125 mol/l is less than 2 min. The half-life at 0.0125 mol/l (buffer, pH 10.5, 40°C, pH 10.5, 1.25 10^-2 mol/l, alone, read-out: t1/2) was less than 0.0333 min. Further, the half-life (buffer, pH 10.5, 40°C, pH 10.5, 10^-3 mol/l, alone, read-out: t1/2) was less than 0.167 min. Moreover, the half-life (buffer, pH 10.5, 40°C, pH 10.5, alone, read-out: t1/2 pH 10.5) is less than 0.0333 min. Also, the “rate of hydrolysis at pH neutral (∼7)” value (compared with a normal ester, C12 BEG 1.25 10^-2 mol/l) is listed as “far faster than for a normal ester”. Also, the half-life at 0.0125 mol/l (sodium stearate solution in distilled water (1 equivalent), pH 8.5, 40°C, pH 8.5, with 1 equivalent sodium stearate, read-out: t1/2 pH 8.5) amounted to 11 min. Under “sodium stearate solution in distilled water (2 equivalents), pH 8.5, 40°C, pH 8.5, with 2 equivalent sodium stearate, read-out: t1/2 pH 8.5”, the half-life at 0.0125 mol/l was determined as 243 min. Also, the half-life at 0.0125 mol/l (sodium stearate solution in distilled water (2 equivalents), pH 10.5, 40°C, pH 10.5, with 2 equivalents sodium stearate, read-out: t1/2 pH 10.5) was found to be 1.7 min. For the same compound, the half-life (solution with 1 equivalent sodium dodecylsulfate, pH 10.5, 40°C, pH 10.5, with 1 equivalent sodium dodecylsulfate, read-out: t1/2 pH 10.5) came out at 414 min. The half-life (solution with 1 equivalent sodium hexadecylsulfonate, pH 10.5, 40°C, pH 10.5, with 1 equivalent sodium hexadecylsulfonate, read-out: t1/2 pH 10.5) was 1.4 min.
Regarding `CCCCCCCCCCCCOS(=O)(=O)[O-].CCCCCCCCCCCC[N+](C)(C)CC(=O)OC/C=C(\C)CCC=C(C)C` [C12 BEG/DS], the k turned out to be 10.6 mol^- ^1.l.min^-1 under setting [8]; 26.1 mol^- ^1.l.min^-1 under setting [9]; 32.8 mol^- ^1.l.min^-1 under setting [10]; 37 mol^- ^1.l.min^-1 under setting [11]; 28.6 mol^- ^1.l.min^-1 under setting [12]; 229 mol^- ^1.l.min^-1 under setting [13]. This compound returned a k under setting [14] of 423.7 mol^- ^1.l.min^-1. Further, the k obs under setting [8] turned out to be 0.0034 min⁻¹; the k obs under setting [9] stood at 0.0083 min⁻¹; the k obs under setting [10] turned out to be 0.0104 min⁻¹; the k obs under setting [11] is 0.01169 min⁻¹; the k obs under setting [12] was found to be 0.0095 min⁻¹; the k obs under setting [13] was found to be 0.0724 min⁻¹. Besides, the k obs under setting [14] came out at 0.134 min⁻¹. In addition, the t1/2 turned out to be 206 min (40°C, pH 10.5, 1.25 10^-2 mol/l, with 2 equivalents of sodium dodecylsulfate, 12500 µM); 84 min (40°C, pH 10.5, 1.25 10^-2 mol/l, with 4 equivalents of sodium dodecylsulfate, 12500 µM); 67 min (40°C, pH 10.5, 1.25 10^-2 mol/l, with 9 equivalents of sodium dodecylsulfate, 12500 µM); 59 min (40°C, pH 10.5, 10^-3 mol/l, with mixture anionic/nonionic, 1000 µM); 77 min (40°C, pH 10.5, 10^-3 mol/l, with sodium dodecylsulfate only, 1000 µM); 9.6 min (40°C, pH 10.5, ion pair 1.25 10^-2 mol/l alone, 12500 µM). Further, the t1/2 (40°C, pH 10.5, ion pair 10^-3 mol/l alone, 1000 µM) came out at 5.2 min.
